This is an account of results in patent publication US20140336219A2, “Pharmaceutical Compositions and Administrations Thereof” (Vertex Pharmaceuticals Incorporated, priority 2011, published 2014).

One may read the EC50 as the concentration that produces a half-maximal response.

The assay has as its target T1, ΔF508-CFTR (Homo sapiens, UniProt P13569, DEL508-508).
T1 construct: expressed in transfected cells
Briefly: Membrane potential optical assay for ΔF508-CFTR potentiation. Particulars: NIH 3T3 cells. The assay is classed as cell-based. An excerpt: The assay utilizes fluorescent voltage sensing dyes to measure changes in membrane potential using a fluorescent plate reader (e.g., FLIPR III, Molecular Devices, Inc.) as a readout for increase in functional ΔF508-CFTR in NIH 3T3 cells. The driving force for the response is the creation of a chloride ion gradient in conjunction with channel activation by a single liquid addition step after the cells have previously been treated with compounds and subsequently loaded with a voltage sensing dye. To identify potentiators of ΔF508-CFTR, a double-addition HTS assay format was developed. This HTS assay utilizes fluorescent voltage sensing dyes to measure changes in membrane potential on the FLIPR III as a measurement for increase in gating (conductance) of ΔF508 CFTR in temperature-corrected ΔF508 CFTR NIH 3T3 cells. The driving force for the response is a Cl^− ion gradient in conjunction with channel activation with forskolin in a single liquid addition step using a fluorescent plate reader such as FLIPR III after the cells have previously been treated with potentiator compounds (or DMSO vehicle control) and subsequently loaded with a redistribution dye. Bath Solution #1: (in mM) NaCl 160, KCl 4.5, CaCl2 2, MgCl2 1, HEPES 10, pH 7.4 with NaOH. Chloride-free bath solution: Chloride salts in Bath Solution #1 (above) are substituted with gluconate salts. […]

T1 sequence (P13569 with tags, fused parts or gaps DEL508-508): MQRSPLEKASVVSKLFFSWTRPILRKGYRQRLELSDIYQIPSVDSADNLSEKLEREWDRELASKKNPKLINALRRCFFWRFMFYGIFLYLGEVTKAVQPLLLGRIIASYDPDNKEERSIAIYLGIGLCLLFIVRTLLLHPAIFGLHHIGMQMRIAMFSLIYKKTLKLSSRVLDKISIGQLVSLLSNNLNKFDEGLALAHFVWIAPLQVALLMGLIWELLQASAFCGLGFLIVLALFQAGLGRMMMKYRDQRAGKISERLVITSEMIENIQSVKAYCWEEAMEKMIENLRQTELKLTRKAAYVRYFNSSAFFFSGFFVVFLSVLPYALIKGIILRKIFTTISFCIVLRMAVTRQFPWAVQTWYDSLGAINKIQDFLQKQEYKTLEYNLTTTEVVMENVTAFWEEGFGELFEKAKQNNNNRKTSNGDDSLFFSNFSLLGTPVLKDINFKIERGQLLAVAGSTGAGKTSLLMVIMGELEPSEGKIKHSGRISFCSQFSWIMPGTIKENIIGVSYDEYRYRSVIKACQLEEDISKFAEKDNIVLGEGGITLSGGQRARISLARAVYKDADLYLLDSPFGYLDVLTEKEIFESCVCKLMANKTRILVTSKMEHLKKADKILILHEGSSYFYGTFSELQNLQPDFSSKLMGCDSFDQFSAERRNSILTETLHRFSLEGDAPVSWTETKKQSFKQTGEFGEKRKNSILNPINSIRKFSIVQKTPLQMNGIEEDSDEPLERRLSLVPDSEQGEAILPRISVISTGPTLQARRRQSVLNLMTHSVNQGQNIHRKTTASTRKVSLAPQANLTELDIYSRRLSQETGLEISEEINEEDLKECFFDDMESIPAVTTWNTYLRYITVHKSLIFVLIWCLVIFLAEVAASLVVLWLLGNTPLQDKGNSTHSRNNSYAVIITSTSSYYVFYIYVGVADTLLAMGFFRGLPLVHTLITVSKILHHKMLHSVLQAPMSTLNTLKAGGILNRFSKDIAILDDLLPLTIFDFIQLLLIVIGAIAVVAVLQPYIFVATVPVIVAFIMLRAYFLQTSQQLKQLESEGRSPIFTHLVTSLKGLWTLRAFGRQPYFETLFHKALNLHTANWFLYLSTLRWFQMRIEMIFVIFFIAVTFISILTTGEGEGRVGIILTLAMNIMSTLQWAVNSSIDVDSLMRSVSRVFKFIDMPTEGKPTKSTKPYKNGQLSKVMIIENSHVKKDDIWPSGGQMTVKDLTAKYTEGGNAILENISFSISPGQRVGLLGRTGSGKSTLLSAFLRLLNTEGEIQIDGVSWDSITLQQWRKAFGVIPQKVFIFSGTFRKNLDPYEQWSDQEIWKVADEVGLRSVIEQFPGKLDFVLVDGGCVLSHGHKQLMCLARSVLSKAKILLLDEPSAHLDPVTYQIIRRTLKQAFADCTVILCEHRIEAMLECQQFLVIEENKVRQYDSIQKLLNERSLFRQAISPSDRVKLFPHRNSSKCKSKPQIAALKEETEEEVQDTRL

Regarding `CC(C)(C)c1cc(C(C)(C)C)c(NC(=O)c2c[nH]c3ccccc3c2=O)cc1O` [Compound 1, N-[2,4-bis(1,1-dimethylethyl)-5-hydroxyphenyl]-1,4-dihydro-4-oxoquinoline-3-carboxamide], the EC50 is less than 10 µM.
